Where “and” joins values, the source holds several entries; their conditions need not be identical. Equal entries are not always repeated. Inconclusive results and toxic doses are left out.
System: L1210 leukemia ip in BDF1 mice, survival T/C
Experiment: NCI In Vivo Anticancer Drug Screen. Data for tumor model L1210 Leukemia (intraperitoneal) in B6D2F1 (BDF1) mice
Details: endpoint: mean survival time, higher = longer survival
How it was run: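 Transplanted-tumor mice were given test agent; controls received vehicle only. Survival readings from the two groups were divided (treated over control).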

[1] = dose: 100.0 mg/kg/injection, schedule: Q04DX003 (ip), vehicle: saline
[2] = dose: 200.0 mg/kg/injection, schedule: Q04DX003 (ip), vehicle: saline
[3] = dose: 400.0 mg/kg/injection, schedule: Q04DX003 (ip), vehicle: saline
[4] = dose: 100.0 mg/kg/injection, schedule: Q04DX003 (ip), vehicle: Klucel (hydroxypropylcellulose) (HPC)
[5] = dose: 200.0 mg/kg/injection, schedule: Q04DX003 (ip), vehicle: Klucel (hydroxypropylcellulose) (HPC)
[6] = dose: 400.0 mg/kg/injection, schedule: Q04DX003 (ip), vehicle: Klucel (hydroxypropylcellulose) (HPC)

`Oc1ccccc1/C=N\Nc1ccccc1` was tested, and the T/C [1] was 100 % of control, the T/C [2] was 95 % of control and the T/C [3] was 103 % of control.

With `CCN1C(=O)NC(=O)/C(=C/N(CCO)CCO)C1=O` the T/C (dose: 100.0 mg/kg/injection, schedule: Q01DX009 (ip), vehicle: Klucel (hydroxypropylcellulose) (HPC)) was 106 % of control, the T/C [4] was 94 % of control and the T/C (dose: 200.0 mg/kg/injection, schedule: Q01DX009 (ip), vehicle: Klucel (hydroxypropylcellulose) (HPC)) was 101 % of control. For the same compound, the T/C [5] was 98 % of control, the T/C (dose: 400.0 mg/kg/injection, schedule: Q01DX009 (ip), vehicle: Klucel (hydroxypropylcellulose) (HPC)) was 100 % of control and the T/C [6] was 93 % of control.

In the case of `Clc1nc(Cl)nc(SCCSc2nc(Cl)nc(Cl)n2)n1`, the T/C [1] is reported as 97 % of control, the T/C [2] is reported as 110 % of control and the T/C [3] is reported as 98 % of control.

In the case of `CC1(C)OCC(C2OC(c3ccccc3)OC(CO)C2O)O1` (configuration not stated), the T/C (dose: 12.5 mg/kg/injection, schedule: Q04DX002 (ip), vehicle: saline with Tween-80) is reported as 87 % of control, the T/C (dose: 25.0 mg/kg/injection, schedule: Q04DX002 (ip), vehicle: saline with Tween-80) is reported as 101 % of control and the T/C (dose: 50.0 mg/kg/injection, schedule: Q04DX002 (ip), vehicle: saline with Tween-80) is reported as 100 % of control.

In the case of `Cc1ccc(S(=O)(=O)N(Cc2ccccc2[N+](=O)[O-])c2ccccc2)cc1`, the T/C (dose: 100.0 mg/kg/injection, schedule: Q01DX001 (ip), vehicle: carboxymethylcellulose (CMC)) is reported as 103 % of control, the T/C (dose: 200.0 mg/kg/injection, schedule: Q01DX001 (ip), vehicle: carboxymethylcellulose (CMC)) is reported as 100 % of control and the T/C (dose: 400.0 mg/kg/injection, schedule: Q01DX001 (ip), vehicle: carboxymethylcellulose (CMC)) is reported as 103 % of control.

`N#C/C(=C\c1ccc([N+](=O)[O-])o1)[N+](=O)[O-]` was tested, and the T/C (dose: 25.0 mg/kg/injection, schedule: Q01DX009 (ip), vehicle: saline with Tween-80) was 110 % of control, the T/C (dose: 50.0 mg/kg/injection, schedule: Q01DX009 (ip), vehicle: saline with Tween-80) was 96 % of control and the T/C (dose: 100.0 mg/kg/injection, schedule: Q01DX009 (ip), vehicle: saline with Tween-80) was 104 % of control. The T/C (dose: 100.0 mg/kg/injection, schedule: Q04DX003 (ip), vehicle: saline with Tween-80) was 106 % of control.

`CC(C)N(c1ccc(C(=O)O)cc1)C(C)C` was tested, and the T/C (dose: 100.0 mg/kg/injection, schedule: Q01DX009 (ip), vehicle: carboxymethylcellulose (CMC)) was 102 % of control and 109 % of control, the T/C (dose: 100.0 mg/kg/injection, schedule: Q04DX002 (ip), vehicle: carboxymethylcellulose (CMC)) was 96 % of control and 98 % of control and the T/C (dose: 100.0 mg/kg/injection, schedule: Q04DX003 (ip), vehicle: carboxymethylcellulose (CMC)) was 101 % of control. The T/C (dose: 200.0 mg/kg/injection, schedule: Q01DX009 (ip), vehicle: carboxymethylcellulose (CMC)) was 102 % of control and 103 % of control, the T/C (dose: 200.0 mg/kg/injection, schedule: Q04DX002 (ip), vehicle: carboxymethylcellulose (CMC)) was 95 % of control and 104 % of control and the T/C (dose: 200.0 mg/kg/injection, schedule: Q04DX003 (ip), vehicle: carboxymethylcellulose (CMC)) was 98 % of control. The T/C (dose: 400.0 mg/kg/injection, schedule: Q01DX009 (ip), vehicle: carboxymethylcellulose (CMC)) was 95 % of control and 97 % of control, the T/C (dose: 400.0 mg/kg/injection, schedule: Q04DX002 (ip), vehicle: carboxymethylcellulose (CMC)) was 93 % of control and 86 % of control and the T/C (dose: 400.0 mg/kg/injection, schedule: Q04DX003 (ip), vehicle: carboxymethylcellulose (CMC)) was 97 % of control.

For `COC(=O)c1cn[nH]c1/N=N/N(C)C`, the T/C (dose: 25.0 mg/kg/injection, schedule: Q01DX009 (ip), vehicle: other) was 120 % of control, the T/C (dose: 58.0 mg/kg/injection, schedule: Q01DX009 (ip), vehicle: other) was 156 % of control and the T/C (dose: 88.0 mg/kg/injection, schedule: Q01DX009 (ip), vehicle: other) was 163 % of control. The T/C (dose: 100.0 mg/kg/injection, schedule: Q01DX001 (ip), vehicle: saline) was 107 % of control, the T/C (dose: 133.0 mg/kg/injection, schedule: Q01DX009 (ip), vehicle: saline) was 155 % of control and the T/C (dose: 200.0 mg/kg/injection, schedule: Q01DX001 (ip), vehicle: saline) was 120 % of control. For the same compound, the T/C (dose: 200.0 mg/kg/injection, schedule: Q01DX009 (ip), vehicle: saline) was 156 % of control and the T/C (dose: 400.0 mg/kg/injection, schedule: Q01DX001 (ip), vehicle: saline) was 122 % of control.

For `COc1cccc(CCNC(=O)CC#N)c1`, the T/C [4] was 98 % of control, the T/C [5] was 87 % of control and the T/C [6] was 91 % of control.

— PubChem BioAssay AID248 (DTP/NCI, 2004)
